Calls of active or inactive are those of the source. The calls are words filed in the database; no cut-off is given here.
What was measured:
Type in all cases: cell-based
[1] = molecular target: T1, Retinoic acid receptor alpha (Homo sapiens) (UniProt P10276); experiment: Antagonist activity at RARalpha in human MCF7 cells assessed as inhibition of ATRA-induced luciferase activity at 10 nM after 48 hrs by luciferase reporter gene assay
T1 sequence (whole entry): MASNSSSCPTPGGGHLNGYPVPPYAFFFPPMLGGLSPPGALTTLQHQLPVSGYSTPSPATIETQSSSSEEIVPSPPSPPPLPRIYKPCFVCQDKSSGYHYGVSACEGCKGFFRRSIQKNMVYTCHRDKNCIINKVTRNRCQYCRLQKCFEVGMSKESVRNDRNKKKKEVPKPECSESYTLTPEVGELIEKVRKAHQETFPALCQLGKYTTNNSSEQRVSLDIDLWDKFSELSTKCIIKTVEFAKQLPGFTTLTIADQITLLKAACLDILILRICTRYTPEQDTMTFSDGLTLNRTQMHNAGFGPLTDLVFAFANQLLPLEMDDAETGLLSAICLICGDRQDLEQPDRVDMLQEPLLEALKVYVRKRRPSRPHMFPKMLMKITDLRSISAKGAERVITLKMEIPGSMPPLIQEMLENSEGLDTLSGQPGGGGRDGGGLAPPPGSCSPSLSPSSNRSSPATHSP

[2] = molecular target: T1, Retinoic acid receptor alpha (Homo sapiens); experiment: Antagonist activity at RARalpha in human MCF7 cells assessed as inhibition of ATRA-induced luciferase activity after 48 hrs by luciferase reporter gene assay
[3] = molecular target: T1, Retinoic acid receptor alpha (Homo sapiens); experiment: Antagonist activity at RARalpha in human MCF7 cells assessed as inhibition of ATRA-induced luciferase activity at 0.1 to 1 nM after 48 hrs by luciferase reporter gene assay

| Structure (SMILES) | inhibition [1] | inhibition [2] | inhibition [3] |
| --- | --- | --- | --- |
| Cc1ccc(C2=CC(C)(C)Oc3c(Br)cc(C(=O)Nc4ccc(C(=O)O)cc4)cc32)cc1 | Active | Dose-dependent effect |  |
| Cc1ccc(C2=CC(C)(C)Oc3c(Br)cc(C(=O)Nc4ccc(C(=O)O)c(F)c4)cc32)cc1 |  |  | Active |

Reference: ChEMBL document CHEMBL2375355, “Practical synthesis of a chromene analog for use as a retinoic acid receptor alpha antagonist lead compound” (Eur J Med Chem, 2013)
